Values quoted from earlier work as cited in US20240299384A1, “METHODS FOR TREATING PULMONARY HYPERTENSION IN PATIENTS WITH LEFT VENTRICULAR ASSIST DEVICE IMPLANTATION” (ACTELION PHARMACEUTICALS LTD, priority 2021, published 2024).

Tests used:
[1] = cited from earlier work
[2] = test system: ET receptors; details: cited from earlier work

NS(=O)(=O)Nc1ncnc(OCCOc2ncc(Br)cn2)c1-c1ccc(Br)cc1 [ACT-132577]
time to peak plasma concentration ([1]; after the first dose of macitentan): about 30 hours | half-life ([1]; humans): approximately 48 hours | plasma concentrations relative to macitentan ([1]; humans): higher plasma concentrations | affinity for the ET receptors relative to parent compound [2]: lower affinity
